What was measured:
[1] = Study S.241.1.109: interaction with fluvoxamine 50 mg QD; format: in vivo, human; details: for AUC(0-τ) / Cmax / Tmax: steady state; for AUC(0-τ): AUC(0-8); for AUC(0-τ) / Cmax: arith. mean; for Tmax: median; for AUC(0-τ) Ratio (Treatment B/A) / Cmax Ratio (Treatment B/A): cilansetron + fluvoxamine / cilansetron alone, ANOVA of log-transformed data
Procedure: In an open-label, randomized, parallel-group study in three groups of 12 healthy, male and female subjects (aged 19 to 45 years), subjects received a 2 mg single dose of cilansetron on Day 1, 2 mg TID on Days 2-13, and a 2 mg single dose on Day 14. […] All morning doses of cilansetron and enzyme inhibitors were administered immediately after a standard breakfast. […] For each treatment group, log-transformed cilansetron AUC(0-τ) and Cmax values on Day 14 (cilansetron+enzyme inhibitor) were compared statistically versus values on Day 7 (cilansetron alone).
FIG. 42, FIG. 43, and FIG. 44 present geometric mean steady-state plasma concentration-time profiles for cilansetron and its 4-hydroxy metabolites in the absence and presence of concomitant fluvoxamine.

[2] = Study S.241.2.112: population pharmacokinetics (NONMEM) in IBS patients; format: in vivo, human; details: for predicted steady-state AUC(0-τ) / predicted steady-state Cmax: covariate population PK model, mean (SD); for Increase of apparent oral clearance per 1 mL/min creatinine clearance: population model; for half-life: both sexes
Procedure: The pharmacokinetics and pharmacodynamics of cilansetron following multiple oral administration in non-constipated IBS patients have been examined in a population pharmacokinetic (NONMEM) analysis of a Phase II trial. The study was a double-blind, placebo-controlled, randomized, multi-center, parallel-group, dose ranging study to investigate the Efficacy and safety of four different doses of cilansetron (1 mg, 2 mg, 8 mg, and 16 mg TID) in patients with established IBS (non-constipated patients who suffered from IBS according to the Rome Criteria and were not bothered by constipation for >25% of their IBS episodes). The study was to be performed in approximately 50 centers. A sufficient number of patients were to be recruited to insure that at least 88 patients per treatment group were evaluable for efficacy and to get a total of 440 completers. […] There were interim assessments at the end of the 4th week (Visit 3; Day 29) and 8th week (Visit 4; Day 57) and a final assessment at the end of the 12th week (Visit 5; poststudy). Single blood samples for population pharmacokinetic analyses were drawn at Visits 3, 4, 5 or early termination, at 31 of the participating sites. With the exception of Visit 3, the timing of the blood draw in relation to the previous dose was not specified for any of the samples collected, but the time of sampling and the time of last dosing was recorded for each sample collected. For Visit 3, the blood sample had to be taken between 15 minutes and 2 hours of the morning or midday dose.
Various covariates were screened during development of the population pharmacokinetic model, including age, height, weight, body surface area, body mass index, race, gender, smoking status, serum creatinine levels, serum creatinine clearance, total bilirubin levels, cilansetron dose, and concomitant medication usage. Some efficacy and safety parameters were also evaluated in this population analysis using correlation analyses. Efficacy parameters evaluated included overall relief of IBS symptoms (Responder or Non-Responder), intensity of abdominal pain, number of stools and stool consistency, symptoms of abdominal and rectal discomfort (straining, urgency, feeling of incomplete defecation, passage of mucus, bloating, and feeling of abdominal distension), and upper GI symptoms at Visit 5 (vomiting, heartburn, early satiety, postprandial fullness, sensation of prolonged digestion, and nausea). Safety parameters evaluated included the top ten most frequently observed adverse events (constipation, flatulence, nausea, abdominal pain, headache, dyspepsia, infection, gastrointestinal disorders, anorexia, and diarrhea).
The population analysis included data from 160 patients (63 males and 97 females) with a median age of 45.5 years (range: 20-81 years), median weight of 78 kg (range: 47-121 kg), and median height of 170 cm (range: 147-196 cm). More than 90% of the patients were White and 18.8% of the patients were considered smokers. […] A total of 392 quantifiable concentrations for cilansetron, 393 quantifiable concentrations for (4S)-hydroxy cilansetron, and 397 quantifiable concentrations for (4R)-hydroxy cilansetron from 160 patients were included in the NONMEM datasets for population analyses.
FIG. 54, FIG. 55, and FIG. 56 present mean steady-state plasma concentration-time profiles for cilansetron and its 4-hydroxy metabolites, and Table 2.7.2.3.29 and Table 2.7.2.3.30 present descriptive statistics for the estimated pharmacokinetic parameters of cilansetron and its 4-hydroxy metabolites from the final covariate population pharmacokinetic model. The cilansetron concentration data were best described by a one-compartment model with first-order input, an absorption lag time, and first-order elimination. A log-normal distribution was used to describe the variability of clearance, volume of distribution and absorption rate constant between patients. The residual error was best described by an exponential model. […]

[3] = Cilansetron 2 mg TID + Fluvoxamine 50 mg once daily
[4] = Cilansetron 2 mg TID alone (fluvoxamine group)
[5] = cilansetron 1 mg TID, IBS patients, Bayesian estimates, population PK model, arith. mean
[6] = cilansetron 1 mg TID, IBS patients
[7] = cilansetron 2 mg TID, IBS patients, Bayesian estimates, population PK model, arith. mean
[8] = cilansetron 2 mg TID, IBS patients
[9] = cilansetron 8 mg TID, IBS patients, Bayesian estimates, population PK model, arith. mean
[10] = cilansetron 8 mg TID, IBS patients
[11] = cilansetron 16 mg TID, IBS patients, Bayesian estimates, population PK model, arith. mean
[12] = cilansetron 16 mg TID, IBS patients

SMILES | AUC(0-τ) [1, 3] [ng·h/mL] | Cmax [1, 3] [ng/mL] | Tmax [1, 3] [h] | AUC(0-τ) [1, 4] [ng·h/mL] | Cmax [1, 4] [ng/mL] | Tmax [1, 4] [h] | AUC(0-τ) Ratio (Treatment B/A) [1] [%] | Cmax Ratio (Treatment B/A) [1] [%] | CL/F [2, 5] [L/h] | T½ [2, 5] [h] | predicted steady-state AUC(0-τ) [2, 6] | predicted steady-state Cmax [2, 6] | CL/F [2, 7] [L/h] | T½ [2, 7] [h] | predicted steady-state AUC(0-τ) [2, 8] | predicted steady-state Cmax [2, 8] | CL/F [2, 9] [L/h] | T½ [2, 9] [h] | predicted steady-state AUC(0-τ) [2, 10] | predicted steady-state Cmax [2, 10] | also measured
Cc1nccn1CC1CCc2c(c3cccc4c3n2CC[C@H]4O)C1=O (stereo partly drawn) [(4R)-hydroxy cilansetron] | 9.57 | 1.63 | 0.75 | 12.9 | 2.74 | 1.75 | 76 | 60 | 234 | 9.55 | 6.42 (1.40) ng · h/mL | 1.05 (0.19) ng/mL | 232 | 9.56 | 13.0 (2.64) ng · h/mL | 2.17 (0.37) ng/mL | 229 | 9.79 | 53.0 (10.1) ng · h/mL | 8.56 (1.70) ng/mL | Mean AUC decrease with fluvoxamine ([1]; human, in vivo): 24%; Mean Cmax decrease with fluvoxamine ([1]; human, in vivo): 40%; CL/F [2, 11]: 232 L/h; T½ [2, 11]: 9.80 h; predicted steady-state AUC(0-τ) [2, 12]: 98.6 (18.8) ng · h/mL; predicted steady-state Cmax [2, 12]: 16.7 (3.0) ng/mL; Increase of apparent oral clearance per 1 mL/min creatinine clearance [2]: 0.447 L/h
Cc1nccn1CC1CCc2c(c3cccc4c3n2CC[C@@H]4O)C1=O (stereo partly drawn) [(4S)-hydroxy cilansetron] | 7.17 | 1.07 | 2.00 | 7.29 | 1.17 | 3.00 | 101 | 93 | 140 | 5.42 | 3.85 (0.92) ng · h/mL | 0.546 (0.105) ng/mL | 136 | 5.55 | 7.68 (1.59) ng · h/mL | 1.10 (0.20) ng/mL | 134 | 5.64 | 31.6 (7.68) ng · h/mL | 4.46 (1.04) ng/mL | CL/F [2, 11]: 142 L/h; T½ [2, 11]: 5.31 h; predicted steady-state AUC(0-τ) [2, 12]: 63.2 (16.5) ng · h/mL; predicted steady-state Cmax [2, 12]: 9.03 (2.03) ng/mL; Increase of apparent oral clearance per 1 mL/min creatinine clearance [2]: 0.883 L/h
Cc1nccn1C[C@H]1CCc2c(c3cccc4c3n2CCC4)C1=O [Cilansetron, (R)-(−)-4,5,6,8,9,10-hexahydro-10-[(2-methyl-1H-imidazol-1-yl)methyl]-11H-pyrido-[3,2,1-jk]-carbazol-11-one] | – | – | – | – | – | – | – | – | – | – | – | – | – | – | – | – | – | – | – | – | Increase in cilansetron exposure with fluvoxamine ([1]; both, human, in vivo): 3.7-6.6 fold; Mean AUC increase with fluvoxamine ([1]; both, human, in vivo): 6.6 fold; Mean Cmax increase with fluvoxamine ([1]; both, human, in vivo): 3.7 fold; half-life ([2]; human, in vivo, 1 mg): 4.76 h; half-life ([2]; human, in vivo, 2 mg): 4.3 h; half-life ([2]; human, in vivo, 8 mg): 4.5 h; half-life ([2]; human, in vivo, 16 mg): 4.5 h; Apparent oral clearance decrease with concomitant medications ([2]; both, human, in vivo, po): 38.6%; Apparent oral clearance increase in smokers ([2]; both, human, in vivo, po): 32.2%; Increase of mean apparent oral clearance in smokers ([2]; both, human, in vivo, po): approximately 32%; CL/F ([2]; human, in vivo, 1 mg): 28.3 L/h; CL/F ([2]; human, in vivo, 2 mg): 34.1 L/h; CL/F ([2]; human, in vivo, 8 mg): 34.2 L/h; CL/F ([2]; human, in vivo, 16 mg): 37.3 L/h

Reference: patent publication US20090176817A1, “Method of Treatment of Diarrhea-Predominant Irritable Bowel Syndrome in a Subject” (priority 2005, published 2009)
